Measured values from article PMC9807860 (Current Research in Food Science, 2022).
Entries after “also recorded” stand apart in the source; their conditions may differ. One block for each compound: values may come before it.

Columns and labels:
tyrosinase [1] = biological target: T1, tyrosinase (Agaricus bisporus, UniProt C7FF04); assay type: biochemical, mushroom
Target sequence in this assay (C7FF04 2-392): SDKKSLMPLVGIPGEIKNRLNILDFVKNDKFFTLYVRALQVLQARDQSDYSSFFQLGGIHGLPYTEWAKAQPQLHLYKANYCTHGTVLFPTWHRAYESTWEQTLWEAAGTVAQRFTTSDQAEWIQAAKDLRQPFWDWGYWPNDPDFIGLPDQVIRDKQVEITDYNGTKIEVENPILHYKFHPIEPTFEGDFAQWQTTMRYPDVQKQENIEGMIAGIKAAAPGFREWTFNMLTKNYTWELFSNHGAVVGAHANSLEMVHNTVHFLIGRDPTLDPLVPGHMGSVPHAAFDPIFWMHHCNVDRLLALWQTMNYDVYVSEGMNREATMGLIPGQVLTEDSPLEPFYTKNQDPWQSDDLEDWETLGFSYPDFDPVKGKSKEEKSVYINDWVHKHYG

tyrosinase [2] = biological target: T1, tyrosinase; experiment: Fluorescence spectrum quenching of tyrosinase; assay type: binding, mushroom
Target sequence in this assay (C7FF04 2-392): as above

tyrosinase [3] = biological target: T1, tyrosinase; experiment: ANS-binding fluorescence spectrum quenching; design: species or system mushroom; settings: 6j 0–59.41 μM
Target sequence in this assay (C7FF04 1-392): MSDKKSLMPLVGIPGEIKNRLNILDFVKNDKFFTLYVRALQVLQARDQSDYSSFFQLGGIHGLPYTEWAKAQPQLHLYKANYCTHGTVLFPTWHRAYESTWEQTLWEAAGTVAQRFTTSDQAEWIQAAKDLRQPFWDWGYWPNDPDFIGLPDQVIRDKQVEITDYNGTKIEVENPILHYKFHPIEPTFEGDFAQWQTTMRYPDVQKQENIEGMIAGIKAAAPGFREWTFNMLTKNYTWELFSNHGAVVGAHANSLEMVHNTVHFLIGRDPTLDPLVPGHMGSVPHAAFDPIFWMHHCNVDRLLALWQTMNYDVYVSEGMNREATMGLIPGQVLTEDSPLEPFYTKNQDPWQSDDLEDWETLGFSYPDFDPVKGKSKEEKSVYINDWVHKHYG

fresh-cut apple slices = experiment: Anti-browning experiment with fresh-cut apple slices; settings: apple slices dipped 5 min, stored at 4 °C; compared with kojic acid
Cell viability assay = assay type: cell-based; settings: human, HEK-293 cells
tyrosinase [4] = biological target: T1, tyrosinase; settings: Lineweaver-Burk plots; Vmax decreased, Km unchanged
Target sequence in this assay (C7FF04 2-392): as the sequence (C7FF04 2-392) above

[5] = plot of Lg[(F0−F)/F] against Lg[Q]

Inhibitory activity against tyrosinase (in words) (tyrosinase [1]): relatively lower inhibitory activity
SMILES: COc1cc(C=O)cc(OC)c1OCc1cc(=O)c(O)co1 [6c]

Inhibitory activity against tyrosinase (in words) (tyrosinase [1]): relatively lower inhibitory activity
SMILES: COc1cccc(C=O)c1OCc1cc(=O)c(O)co1 [6g]

Inhibitory activity against tyrosinase (in words) (tyrosinase [1]): relatively lower inhibitory activity
SMILES: Cc1cc(C=O)cc(C)c1OCc1cc(=O)c(O)co1 [6h]

Inhibitory activity against tyrosinase (in words) (tyrosinase [1]): relatively lower inhibitory activity
SMILES: CCOc1cccc(C=O)c1OCc1cc(=O)c(O)co1 [6i]

Anti-tyrosinase activity relative to the positive control kojic acid (tyrosinase [1]; ratio of IC50 values): nine folds more active
Type of quenching (tyrosinase [2]; Stern-Volmer analysis): static quenching
Ksv (Stern-Volmer quenching constant) (tyrosinase [2]; excitation 280 nm, 6j 4.99–24.79 μM): 7040 M⁻¹
Ka (binding constant) (tyrosinase [2]; [5]): 28900 M⁻¹
n (binding sites) (tyrosinase [2]; [5]): 1.24
Kq (biomolecular quenching constant) (tyrosinase [2]; τ0 10^−8 s): 7.04e+11 M⁻¹ s⁻¹
ANS-binding fluorescence: maximum emission peak wavelength and intensity (tyrosinase [3]): did not present an obvious change
Inhibition type (tyrosinase [4]): noncompetitive inhibitor
SMILES: O=Cc1ccc(OCc2cc(=O)c(O)co2)cc1F [6j]
Anti-browning effect (L*, ΔE, visual assessment) (fresh-cut apple slices): could delay the enzymatic browning of fresh-cut apples; also recorded: stronger anti-browning effect than kojic acid
viability at 24 h, 1 µM (Cell viability assay): 97.1 ± 2.49%
viability at 24 h, 4 µM (Cell viability assay): 106 ± 8.83%
viability at 24 h, 16 µM (Cell viability assay): 102 ± 10.1%
viability at 24 h, 64 µM (Cell viability assay): 105 ± 7.27%
viability at 24 h, 256 µM (Cell viability assay): 88.6 ± 3.61%

Inhibitory activity against tyrosinase (in words) (tyrosinase [1]): relatively lower inhibitory activity
SMILES: COc1cc(C=O)cc(Br)c1OCc1cc(=O)c(O)co1 [6k]
